Measurements taken from patent US8785653B2, “(3-aryl-1H-1,2,4-triazol-5-yl)-linked heterocycle derivatives” (H. Lundbeck A/S, priority 2009, dated 2014).

Target: T1, PDE10A enzyme (Homo sapiens, UniProt Q9Y233)
T1 construct: made in house; host or cells: E. coli BL21(DE3)
Experiment: PDE10A inhibition assay
Type: biochemical
Conditions: 3H-labelled cAMP substrate 5 nM, SPA beads, one hr at room temperature
Method: Active PDE10A enzyme is prepared in a number of ways for use in PDE assays (Loughney, K. et al. Gene 1999, 234, 109-117; Fujishige, K. et al. Eur J Biochem. 1999, 266, 1118-1127 and Soderling, S. et al. Proc. Natl. Acad. Sci. 1999, 96, 7071-7076). PDE10A can be expressed as full-length proteins or as truncated proteins, as long as they express the catalytic domain. PDE10A can be prepared in different cell types, for example insect cells or E. coli. An example of a method to obtain catalytically active PDE10A is as follows: The catalytic domain of human PDE10A (amino acids 440-779 from the sequence with accession number NP 006652) is amplified from total human brain total RNA by standard RT-PCR and is cloned into the BamH1 and Xho1 sites of the pET28a vector (Novagen). Expression in coil is performed according to standard protocols. Briefly, the expression plasmids are transformed into the BL21(DE3) E. coli strain, and 50 mL cultures inoculated with the cells allowed to grow to an OD600 of 0.4-0.6 before protein expression is induced with 0.5mM IPTG. Following induction, the cells are incubated overnight at room temperature, after which the cells are collected by centrifugation. Cells expressing PDE10A are resuspended in 12 mL (50 mM TRIS-HCl-pH8.0, 1 mM MgCl2 and protease inhibitors). The cells are lysed by sonication, and after all cells are lysed, TritonX100 is added according to Novagen protocols.
A PDE10A assay may for example, be performed as follows: The assay is performed in 60 uL samples containing a fixed amount of the relevant PDE enzyme (sufficient to convert 20-25% of the cyclic nucleotide substrate), a buffer (50 mM HEPES7.6; 10 mM MgCl2; 0.02% Tween20), 0.1 mg/mI BSA, 225 pCi of ^3H-labelled cyclic nucleotide substrate, tritium labeled cAMP to a final concentration of 5 nM and varying amounts of inhibitors. Reactions are initiated by addition of the cyclic nucleotide substrate, and reactions are allowed to proceed for one hr at room temperature before being terminated through mixing with 15 uL 8 mg/mL yttrium silicate SPA beads (Amersham). The beads are allowed to settle for one hr in the dark before the plates are counted in a Wallac 1450 Microbeta counter. The measured signal can be converted to activity relative to an uninhibited control (100%) and IC50 values can be calculated using the XIfit extension to EXCEL.

T1 sequence (Q9Y233 716-1055): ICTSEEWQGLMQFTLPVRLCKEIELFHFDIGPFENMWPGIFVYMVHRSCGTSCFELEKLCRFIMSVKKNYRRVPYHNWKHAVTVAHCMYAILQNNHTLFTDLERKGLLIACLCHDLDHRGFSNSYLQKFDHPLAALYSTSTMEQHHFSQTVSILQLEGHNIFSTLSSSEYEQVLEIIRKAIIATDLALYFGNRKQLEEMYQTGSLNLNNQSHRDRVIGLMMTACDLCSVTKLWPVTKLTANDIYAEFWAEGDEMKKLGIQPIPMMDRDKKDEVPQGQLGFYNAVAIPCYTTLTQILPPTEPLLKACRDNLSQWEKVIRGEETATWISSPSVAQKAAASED

IC50 [nM]	Compound
23	COc1ccc(C)n2nc(CCc3nc(-c4ccccc4)nn3CCO)nc12 [2-{5-[2-(8-Methoxy-5-methyl-[1,2,4]triazolo[1,5-a]pyridin-2-yl)-ethyl]-3-phenyl-[1,2,4]triazol-1-yl}-ethanol]
5.6	Cc1ncc(C)n2nc(CCc3nc(-c4cccs4)nn3C)nc12 [5,8-Dimethyl-2-[2-(2-methyl-5-thiophen-2-yl-2H-[1,2,4]triazol-3-yl)-etnyl]-[1,2,4]triazolo[1,5-a]pyrazine]
110	Cc1ncc(C)n2nc(CCc3nc(-c4cccnc4)nn3C)nc12 [5,8-Dimethyl-2-[2-(2-methyl-5-pyridin-3-yl-2H-[1,2,4]triazol-3-yl)-ethyl]-[1,2,4]triazolo[1,5-a]pyrazine]
39	Cc1ncc(C)n2nc(CCc3nc(-c4ccccn4)nn3C)nc12 [5,8-Dimethyl-2-[2-(2-methyl-5-pyridin-2-yl-2H-[1,2,4]triazol-3-yl)-ethyl]-[1,2,4]triazolo[1,5-a]pyrazine]
76	Cc1csc(-c2nc(CCc3nc4c(C)ncc(C)n4n3)n(C)n2)n1 [5,8-Dimethyl-2-{2-[2-methyl-5-(4-methyl-thiazol-2-yl)-2H-[1,2,4]triazol-3-yl]-ethyl}-[1,2,4]triazolo[1,5-a]pyrazine]
53	Cc1ncc(C)n2nc(CSc3nc(-c4ccccc4)n[nH]3)nc12 [5,8-Dimethyl-2-(5-phenyl-2H-[1,2,4]triazol-3-ylsulfanylmethyl)-[1,2,4]triazolo[1,5-a]pyrazine]
56	COc1ccc(C)n2nc(CCc3nc(-c4ccccc4)nn3C(C)C)nc12 [2-[2-(2-Isopropyl-5-phenyl-2H-[1,2,4]triazol-3-yl)-ethyl]-8-methoxy-5-methyl-[1,2,4]triazolo[1,5-a]pyridine]
52	COc1ccc(C)n2nc(CSc3nc(-c4ccccc4)n[nH]3)nc12 [8-Methoxy-5-methyl-2-(5-phenyl-2H-[1,2,4]triazol-3-ylsulfanylmethyl)-[1,2,4]triazolo[1,5-a]pyridine]
5.3	Cc1ncc(C)n2nc(CCc3nc(-c4ccsc4)nn3C)nc12 [5,8-Dimethyl-2-[2-(2-methyl-5-thiophen-3-yl-2H-[1,2,4]triazol-3-yl)-ethyl]-[1,2,4]triazolo[1,5-a]pyrazine]
14	COCCn1nc(-c2ccccc2)nc1CCc1nc2c(C)ncc(C)n2n1 [2-{2-[2-(2-Methoxy-ethyl)-5-phenyl-2H-[1,2,4]triazol-3-yl]-ethyl}-5,8-dimethyl-[1,2,4]triazolo[1,5-a]pyrazine]
45	COc1ccc(C)n2nc(CCc3nc(-c4ccccc4)nn3CCC#N)nc12 [3-{5-[2-(8-Methoxy-5-methyl-[1,2,4]triazolo[1,5-a]pyridin-2-yl)-ethyl]-3-phenyl-[1,2,4]triazol-1-yl}-propionitrile]
36	Cc1ncc(C)n2nc(CCc3nc(-c4nccs4)nn3C)nc12 [5,8-Dimethyl-2-[2-(2-methyl-5-thiazol-2-yl-2H-[1,2,4]triazol-3-yl)-ethyl]-[1,2,4]triazolo[1,5-a]pyrazine]
100	Cc1ncc(C)n2nc(CCc3nc(-c4ccccc4)nn3CCCN)nc12 [3-{5-[2-(5,8-Dimethyl-[1,2,4]triazolo[1,5-a]pyrazin-2-yl)-ethyl]-3-phenyl-[1,2,4]triazol-1-yl}-propylamine]
120	Cc1ncc(C)n2nc(CCc3nc(-c4ncco4)nn3C)nc12 [5,8-Dimethyl-2-[2-(2-methyl-5-oxazol-2-yl-2H-[1,2,4]triazol-3-yl)-ethyl]-[1,2,4]triazolo[1,5-a]pyrazine]
6.7	Cc1ccc(C)n2nc(CCc3nc(-c4ccccc4)nn3C)nc12 [5,8-Dimethyl-2-[2-(2-methyl-5-phenyl-2H-[1,2,4]triazol-3-yl)-ethyl]-[1,2,4]triazolo[1,5-a]pyridine]
62	COCCn1nc(-c2ccccc2)nc1CCc1nc2c(OC)ccc(C)n2n1 [8-Methoxy-2-{2-[2-(2-methoxy-ethyl)-5-phenyl-2H-[1,2,4]triazol-3-yl]-ethyl}-5-methyl-[1,2,4]triazolo[1,5-a]pyridine]
560	COc1cccn2nc(CCc3nc(-c4ccccc4)nn3C)nc12 [8-Methoxy-2-[2-(2-methyl-5-phenyl-2H-[1,2,4]triazol-3-yl)-ethyl]-[1,2,4]triazolo[1,5-a]pyridine]
26	Cc1ncc(C)n2nc(CCc3nc(-c4cncs4)nn3C)nc12 [5,8-Dimethyl-2-[2-(2-methyl-5-thiazol-5-yl-2H-[1,2,4]triazol-3-yl)-ethyl]-[1,2,4]triazolo[1,5-a]pyrazine]
81	CCOC(=O)Cn1nc(-c2ccccc2)nc1CCc1nc2c(OC)ccc(C)n2n1 [{5-[2-(8-Methoxy-5-methyl-[1,2,4]triazolo[1,5-a]pyridin-2-yl)-ethyl]-3-phenyl-[1,2,4]triazol-1-yl}-acetic acid ethyl ester]
38	Cc1ncc(C)n2nc(CCc3nc(-c4ccco4)n(C)n3)nc12 [2-[2-(5-Furan-2-yl-1-methyl-1H-[1,2,4]triazol-3-yl)-ethyl]-5,8-dimethyl-[1,2,4]triazolo[1,5-a]pyrazine]
170	Cc1cccn2nc(CCc3nc(-c4ccccc4)nn3C)nc12 [8-Methyl-2-[2-(2-methyl-5-phenyl-2H-[1,2,4]triazol-3-yl)-ethyl]-[1,2,4]triazolo[1,5-a]pyridine]
25	COc1ccc(C)n2nc(CCc3nc(-c4ccccc4)nn3C)nc12 [8-Methoxy-5-methyl-2-[2-(2-methyl-5-phenyl-2H-[1,2,4]triazol-3-yl)-ethyl]-[1,2,4]triazolo[1,5-a]pyridine]
53	Cc1ncc(C)n2nc(CCc3nc(-c4ncccn4)nn3C)nc12 [5,8-Dimethyl-2-[2-(2-methyl-5-pyrimidin-2-yl-2H-[1,2,4]triazol-3-yl)-ethyl]-[1,2,4]triazolo[1,5-a]pyrazine]
4.6	Cc1ncc(C)n2nc(CCc3nc(-c4ccco4)nn3C)nc12 [2-[2-(5-Furan-2-yl-2-methyl-2H-[1,2,4]triazol-3-yl)-ethyl]-5,8-dimethyl-[1,2,4]triazolo[1,5-a]pyrazine]
60	Cc1ncc(C)n2nc(/C=C/c3nc(-c4ccco4)n(C)n3)nc12 [2-[(E)-2-(5-Furan-2-yl-1-methyl-1H-[1,2,4]triazol-3-yl)-vinyl]-5,8-dimethyl-[1,2,4]triazolo[1,5-a]pyrazine]
59	Cc1cc(C)n2nc(CCc3nc(-c4ccccc4)nn3C)nc2n1 [5,7-Dimethyl-2-[2-(2-methyl-5-phenyl-2H-[1,2,4]triazol-3-yl)-ethyl]-[1,2,4]triazolo[1,5-a]pyrimidine]
200	Cc1cccc2nc(CSc3nc(-c4ccccc4)n[nH]3)nn12 [5-Methyl-2-(5-phenyl-2H-[1,2,4]triazol-3-ylsulfanylmethyl)-[1,2,4]triazolo[1,5-a]pyridine]
69	Cc1ncc(C)n2nc(CCc3nc(-c4ccccc4)nn3CCO)nc12 [2-{5-[2-(5,8-Dimethyl-[1,2,4]triazolo[1,5-a]pyrazin-2-yl)-ethyl]-3-phenyl-[1,2,4]triazol-1-yl}-ethanol]
25	Cc1ncc(C)n2nc(CCc3nc(-c4cscn4)nn3C)nc12 [5,8-Dimethyl-2-[2-(2-methyl-5-thiazol-4-yl-2H-[1,2,4]triazol-3-yl)-ethyl-]-[1,2,4]triazolo[1,5-a]pyrazine]
